The record followed here is patent US8420646B2, “Tricyclic tetrahydroquinoline antibacterial agents” (PAH P&U LLC, priority 2002, dated 2013).

Structures are written as SMILES. Values joined by “and” are separate entries in the source; they are usually repeats but may differ in a detail not shown here. Equal values may be shown once.

For the assay, the target named is T1, E. coli DNA gyrase (Escherichia coli, UniProt P0AES4+P0AES6).
T1 construct: made in house; host or cells: strains overexpressing each subunit individually
T1 sequence (P0AES4 whole entry, one chain of several): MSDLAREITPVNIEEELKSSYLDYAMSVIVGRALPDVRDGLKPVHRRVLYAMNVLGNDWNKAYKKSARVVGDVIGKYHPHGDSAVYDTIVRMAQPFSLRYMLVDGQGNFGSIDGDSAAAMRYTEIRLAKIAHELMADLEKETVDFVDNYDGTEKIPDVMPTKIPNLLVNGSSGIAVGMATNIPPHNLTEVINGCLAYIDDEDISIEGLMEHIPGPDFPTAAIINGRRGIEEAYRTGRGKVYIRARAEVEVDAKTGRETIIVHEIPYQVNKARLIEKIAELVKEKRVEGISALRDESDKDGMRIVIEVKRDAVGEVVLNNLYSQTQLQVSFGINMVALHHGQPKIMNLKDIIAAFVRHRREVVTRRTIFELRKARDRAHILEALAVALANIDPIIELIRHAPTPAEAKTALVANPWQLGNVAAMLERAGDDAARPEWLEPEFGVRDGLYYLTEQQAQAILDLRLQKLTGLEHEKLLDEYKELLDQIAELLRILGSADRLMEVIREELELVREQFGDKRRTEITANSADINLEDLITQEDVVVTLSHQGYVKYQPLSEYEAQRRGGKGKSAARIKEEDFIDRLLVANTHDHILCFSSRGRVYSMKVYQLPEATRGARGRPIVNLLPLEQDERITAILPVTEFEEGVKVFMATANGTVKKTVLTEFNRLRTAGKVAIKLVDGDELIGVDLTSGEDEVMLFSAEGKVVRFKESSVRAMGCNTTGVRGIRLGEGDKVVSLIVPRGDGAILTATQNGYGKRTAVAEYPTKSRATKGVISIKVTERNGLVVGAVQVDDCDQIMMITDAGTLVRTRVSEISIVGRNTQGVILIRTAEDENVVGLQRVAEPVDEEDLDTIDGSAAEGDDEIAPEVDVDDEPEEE
The assay can be described thus: In Vitro DNA Gyrase Assay (supercoiling of relaxed pBR322, EtBr-stained agarose gel). In kind it is biochemical. The following applies: Gyrase IC50 (μM), E. coli DNA gyrase holoenzyme A2B2; substrate relaxed pBR322; relaxed vs. supercoiled DNA on 0.8% agarose gel. The text has this: DNA gyrase is a bacterial topoisomerase that introduces negative supercoils into DNA. The DNA gyrase assay measures the degree of enzymatic activity by quantitating relative amounts of relaxed vs. supercoiled DNA on an EtBr-stained 0.8% agarose gel. The substrate is relaxed pBR322. The enzyme is E. coli DNA gyrase which is purified from strains overexpressing each of the subunits individually (there are two: A and B and the holoenzyme consists of the heterodimer A2B2). See for example, Hallett et al. Cloning of the DNA gyrase genes under tac promoter control: overproduction of the gyrase A and B proteins. Gene 93: 139-142 (1990); Simon et al. Biochemical complementation studies in vitro of gyrase subunits from different species. FEBS Lett 373:88-92 (1995); and O'Dea et al. Mutations in the B subunit of Escherichia coli DNA gyrase that affect ATP-dependent reactions. J. Biol Chem 1996 271:9723-9 (1996).
In the below chart, racemic mixtures are denoted with (±)- and enantiomerically enriched samples are denoted by (−)- or (+)-.
With `CC(=O)c1ccc2c(c1)CC1(C(=O)NC(=O)NC1=O)[C@H]1[C@H](C)O[C@H](C)CN21` (racemic) [Example 18, 8-Acetyl-1,2,4,4a-tetrahydro-2,4-dimethylspiro[[1,4]oxazino[4,3-a]quinoline-5(6H),5′(2H)-pyrimidine)-2′,4′,6′(1′H,3′H)-trione], the IC50 (commonly the midpoint of a concentration-inhibition curve) worked out at 8.4 µM.
The molecule `C[C@@H]1CN2c3ccc(F)cc3CC3(C(=O)NC(=O)NC3=O)[C@H]2[C@H](C)O1` (racemic) [Example 4, 8-Fluoro-1,2,4,4a-tetrahydro-cis-2,4-dimethylspiro[[1,4]oxazino[4,3-a]quinoline-5(6H), 5′(2′H)-pyrimidine]-2′,4′,6′(1′H,3′H)-trione] came in with an IC50 of 70.2 µM.
On to `C[C@@H]1CN2c3ccc([N+](=O)[O-])cc3CC3(C(=O)NC(=O)NC3=O)[C@H]2[C@H](C)O1` (stereo in doubt) [Example 1], for which the IC50 was 11.8 µM and 6.1 µM.
In the case of `COC(=O)c1ccc2c(c1)CC1(C(=O)NC(=O)NC1=O)[C@H]1[C@H](C)O[C@H](C)CN21` (relative stereo) [Example 43, rel-Methyl (2R,4S,4aS)1,1′-2,3′,4,4a,6′-Octahydro-2,4-dimethyl-2′,4′,6′-trioxospiro[[1,4]oxazino[4,3-a]quinoline-5(6H),5′(2′H)-pyrimidine]-8-carboxylate], the IC50 was found to be 24 µM.
The figure for `C[C@@H]1CN2c3ccc(C#N)cc3CC3(C(=O)NC(=O)NC3=O)[C@H]2[C@H](C)O1` [Example 6, 1,1′,2,3′4,4′,4a, 6′-Octrahydro-2,4′,6′-trioxospiro[[1,4]oxazino[4,3-a]quinoline-5(6H), 5′(2′H)-pyrimidine]-8-carbonitrile] is 13.8 µM.
Under `C[C@@H]1CN2c3ccccc3CC3(C(=O)NC(=O)NC3=O)[C@H]2[C@H](C)O1` (racemic) [Example 2, 1,2,4,4a-Tetrahydro-cis-2,4-dimethylspiro[[1,4]oxazino[4,3-a]quinoline-5(6H), 5′(2′H)-pyrimidine]-2′,4′,6′(1′H,3′H)-trione] stands 45.6 µM; under `C[C@@H]1OCCN2c3ccc([N+](=O)[O-])cc3CC3(C(=O)NC(=O)NC3=O)[C@@H]12` (stereo in doubt) [Example 25], 18.2 µM and 32 µM; under `C[C@@H]1CN2c3ccc([N+](=O)[O-])cc3CC3(C(=O)NC(=O)NC3=O)[C@@H]2[C@@H](C)O1` (racemic) [Example 1], 19 µM.
